This is an account of results in patent publication US20250129027A1 (APOGEE PHARMACEUTICALS, INC., priority 2023, published 2025).

The structures appear in SMILES notation. A value given as a limit tells only on which side of the number the result lay.

For one assay, the target named is human recombinant FAAH (Homo sapiens (Human), UniProt O00519). Description: In vitro inhibition of FAAH activity (fluorescent inhibitor screening kit, AMC arachidonoyl amide). The format is biochemical. The note with it: human recombinant FAAH; read-out: Inhibition on FAAH activity (IC50). From the text:
The inhibitory effect of compounds of Formula (I-IV) on the activity of human recombinant FAAH was studied using a commercial inhibitor screening kit (Cayman Chemicals, Godlewski et al., 2010 [19]). In brief, FAAH hydrolyzes AMC arachidonoyl amide resulting in the release of the fluorescent product, while the inhibitor will inhibit the FAAH activity and thus reduce the fluorescent signal. The resulting fluorophore can be analyzed using an excitation wavelength of 340-360 nm and an emission wavelength of 450-465 nm by a plate reader (Synergy H1, Biotek). Inhibition is calculated as a percentage of the treated sample over the non-treated control based on the signal values, and where possible, a range of concentrations of compounds was tested to find the IC50 values (i.e. the concentration of compound that inhibited 50% FAAH activity).

The next assay has as its target human recombinant MAGL (Homo sapiens (Human), UniProt Q99685). Kind of assay: In vitro inhibition of MAGL activity (inhibitor screening kit, 4-nitrophenylacetate). The format is biochemical. As to conditions: human recombinant MAGL. The protocol: The inhibitory effect of the compounds on activity of human recombinant MAGL was also studied using a commercial inhibitor screening kit (Cayman Chemicals). In brief, MAGL hydrolyzes 4-nitrophenylacetate resulting in a yellow product, 4-nitrophenol with an absorbance at 405-412 nm, while the inhibitor will inhibit the MAGL activity and thus reduce the yellow signal. The absorbance of the yellow product can be analyzed using the plate reader. Inhibition is calculated as a percentage of the treated sample over the non-treated MAGL control based on the signal values.

Sequence of human recombinant FAAH (O00519 whole entry): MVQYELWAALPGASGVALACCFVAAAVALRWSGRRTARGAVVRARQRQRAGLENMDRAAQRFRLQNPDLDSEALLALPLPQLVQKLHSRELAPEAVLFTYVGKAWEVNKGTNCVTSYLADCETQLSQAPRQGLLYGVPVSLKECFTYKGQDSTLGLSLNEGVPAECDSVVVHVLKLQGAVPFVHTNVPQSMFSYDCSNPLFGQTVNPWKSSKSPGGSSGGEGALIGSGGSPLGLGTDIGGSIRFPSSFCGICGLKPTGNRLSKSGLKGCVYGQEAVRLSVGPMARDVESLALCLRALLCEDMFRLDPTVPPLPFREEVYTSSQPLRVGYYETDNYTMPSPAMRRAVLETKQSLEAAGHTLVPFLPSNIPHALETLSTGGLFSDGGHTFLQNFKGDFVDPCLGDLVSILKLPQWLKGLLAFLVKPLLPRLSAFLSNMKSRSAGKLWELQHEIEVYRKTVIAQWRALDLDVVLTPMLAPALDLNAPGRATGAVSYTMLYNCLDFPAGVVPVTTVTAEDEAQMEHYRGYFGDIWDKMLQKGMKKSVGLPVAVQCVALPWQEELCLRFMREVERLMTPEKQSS
Sequence of human recombinant MAGL (Q99685 whole entry): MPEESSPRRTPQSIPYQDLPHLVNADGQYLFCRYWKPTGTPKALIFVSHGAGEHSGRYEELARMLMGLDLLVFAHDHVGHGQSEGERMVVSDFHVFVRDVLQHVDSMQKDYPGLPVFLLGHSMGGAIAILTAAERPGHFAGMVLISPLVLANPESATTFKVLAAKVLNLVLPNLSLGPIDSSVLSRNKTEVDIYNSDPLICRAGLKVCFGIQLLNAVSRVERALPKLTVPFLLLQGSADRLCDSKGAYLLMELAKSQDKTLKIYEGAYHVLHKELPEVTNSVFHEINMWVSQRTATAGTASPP

Regarding `CCCCCCCCNC(=O)Oc1cccc(-c2cncc(C(=O)NN)c2)c1` [Example 25, 3-(5-(hydrazinecarbonyl)pyridin-3-yl)phenyl octylcarbamate], the concentration for half-maximal inhibition (IC50) at human recombinant FAAH is more than 1 µM; on human recombinant MAGL, more than 10 µM.
On the same counts, the results for `N#Cc1cncc(-c2cccc(OC(=O)NC3CCCCC3)c2)c1` [Example 28, 3-(5-cyanopyridin-3-yl)phenyl cyclohexylcarbamate] are 0.1 to 1 µM and more than 10 µM.
On the same counts, the results for `N#Cc1cncc(-c2cccc(OC(=O)NC3CCCCCC3)c2)c1` [Example 29, 3-(5-cyanopyridin-3-yl)phenyl cycloheptylcarbamate] are approximately 0.1 µM and more than 10 µM.
On the same counts, the results for `O=C(NCC1CCCCC1)Oc1cccc(-c2cncc(C(F)(F)F)c2)c1` [Example 31, 3-(5-(trifluoromethyl)pyridin-3-yl)phenyl (cyclohexylmethyl)carbamate] are 0.01 to 0.1 µM and more than 1 µM.
On to `O=C(NC1CCCC1)Oc1cccc(-c2cncc(C(F)(F)F)c2)c1` [Example 32, 3-(5-(trifluoromethyl)pyridin-3-yl)phenyl cyclopentylcarbamate], for which the IC50 at human recombinant FAAH was 0.01 to 0.1 µM; at human recombinant MAGL, more than 10 µM.
For the molecule `O=C(NC1CCCCC1)Oc1cccc(-c2cncc(C(F)(F)F)c2)c1` [Example 33, 3-(5-(trifluoromethyl)pyridin-3-yl)phenyl cyclohexylcarbamate], the IC50 is 0.1 to 1 µM at human recombinant FAAH and more than 10 µM at human recombinant MAGL.
The corresponding values for `O=C(NC1CCCCCC1)Oc1cccc(-c2cncc(C(F)(F)F)c2)c1` [Example 34, 3-(5-(trifluoromethyl)pyridin-3-yl)phenyl cycloheptylcarbamate] are 0.1 to 1 µM and more than 10 µM.
For the molecule `CCCCCCCCNC(=O)Oc1cccc(-c2cncc(-c3ccc[nH]3)c2)c1` [Example 35, 3-(5-(1H-pyrrol-2-yl)pyridin-3-yl)phenyl octylcarbamate], the IC50 is 0.01 to 0.1 µM on human recombinant FAAH and more than 10 µM at human recombinant MAGL.
In the case of `O=C(NCC1CCCCC1)Oc1cccc(-c2cncc(-c3ccc[nH]3)c2)c1` [Example 36, 3-(5-(1H-pyrrol-2-yl)pyridin-3-yl)phenyl (cyclohexylmethyl)carbamate], the figures for the IC50 at human recombinant FAAH and on human recombinant MAGL were 0.1 to 1 µM and approximately 10 µM, respectively.
The corresponding values for `O=C(NCc1ccccc1)Oc1cccc(-c2cncc(-c3ccc[nH]3)c2)c1` [Example 37, 3-(5-(1H-pyrrol-2-yl)pyridin-3-yl)phenyl benzylcarbamate] are approximately 1 µM and more than 10 µM.
The corresponding values for `O=C(NC1CCCC1)Oc1cccc(-c2cncc(-c3ccc[nH]3)c2)c1` [Example 38, 3-(5-(1H-pyrrol-2-yl)pyridin-3-yl)phenyl cyclopentylcarbamate] are 0.1 to 1 µM and more than 10 µM.
On the same counts, the results for `O=C(NC1CCCCC1)Oc1cccc(-c2cncc(-c3ccc[nH]3)c2)c1` [Example 39, 3-(5-(1H-pyrrol-2-yl)pyridin-3-yl)phenyl cyclohexylcarbamate] are 0.1 to 1 µM and more than 10 µM.
On to `O=C(NC1CCCCCC1)Oc1cccc(-c2cncc(-c3ccc[nH]3)c2)c1` [Example 40, 3-(5-(1H-pyrrol-2-yl)pyridin-3-yl)phenyl cycloheptylcarbamate], for which the IC50 on human recombinant FAAH was 0.01 to 0.1 µM; on human recombinant MAGL, approximately 10 µM.
On the same counts, the results for `COc1ccc(OC(=O)NCC2CCCCC2)cc1-c1cncc(-c2ccc[nH]2)c1` [Example 42, 3-(5-(1H-pyrrol-2-yl)pyridin-3-yl)-4-methoxyphenyl (cyclohexylmethyl)carbamate] are 0.1 to 1 µM and approximately 10 µM.
Take `COc1ccc(OC(=O)NCc2ccccc2)cc1-c1cncc(-c2ccc[nH]2)c1` [Example 43, 3-(5-(1H-pyrrol-2-yl)pyridin-3-yl)-4-methoxyphenyl benzylcarbamate]: the IC50 on human recombinant FAAH was more than 1 µM; on human recombinant MAGL, more than 10 µM.
The corresponding values for `COc1ccc(OC(=O)NC2CCCC2)cc1-c1cncc(-c2ccc[nH]2)c1` [Example 44, 3-(5-(1H-pyrrol-2-yl)pyridin-3-yl)-4-methoxyphenyl cyclopentylcarbamate] are more than 1 µM and more than 10 µM.
As for `COc1ccc(OC(=O)NC2CCCCC2)cc1-c1cncc(-c2ccc[nH]2)c1` [Example 45, 3-(5-(1H-pyrrol-2-yl)pyridin-3-yl)-4-methoxyphenyl cyclohexylcarbamate], the IC50 on human recombinant FAAH was more than 1 µM; at human recombinant MAGL, more than 10 µM.
For the molecule `COc1ccc(OC(=O)NC2CCCCCC2)cc1-c1cncc(-c2ccc[nH]2)c1` [Example 46, 3-(5-(1H-pyrrol-2-yl)pyridin-3-yl)-4-methoxyphenyl cycloheptylcarbamate], the IC50 at human recombinant FAAH is 0.1 to 1 µM; on human recombinant MAGL it was more than 10 µM.
The corresponding values for `O=C(NCC1CCCCC1)Oc1cccc(-c2cncc(-c3ccco3)c2)c1` [Example 48, 3-(5-(furan-2-yl)pyridin-3-yl)phenyl (cyclohexylmethyl)carbamate] are 0.01 to 0.1 µM and approximately 10 µM.
The corresponding values for `O=C(NCc1ccccc1)Oc1cccc(-c2cncc(-c3ccco3)c2)c1` [Example 49, 3-(5-(furan-2-yl)pyridin-3-yl)phenyl benzylcarbamate] are 0.1 to 1 µM and more than 10 µM.
On the same counts, the results for `O=C(NC1CCCC1)Oc1cccc(-c2cncc(-c3ccco3)c2)c1` [Example 50, 3-(5-(furan-2-yl)pyridin-3-yl)phenyl cyclopentylcarbamate] are 0.01 to 0.1 µM and approximately 10 µM.
`O=C(NC1CCCCCC1)Oc1cccc(-c2cncc(-c3ccco3)c2)c1` [Example 52, 3-(5-(furan-2-yl)pyridin-3-yl)phenyl cycloheptylcarbamate]: the IC50 on human recombinant FAAH is 0.01 to 0.1 µM; on human recombinant MAGL it was approximately 10 µM.
The corresponding values for `CCCCCCCCNC(=O)Oc1ccc(OC)c(-c2cncc(-c3ccco3)c2)c1` [Example 53, 3-(5-(furan-2-yl)pyridin-3-yl)-4-methoxyphenyl octylcarbamate] are 0.01 to 0.1 µM and approximately 10 µM.
Consider `COc1ccc(OC(=O)NCC2CCCCC2)cc1-c1cncc(-c2ccco2)c1` [Example 54, 3-(5-(furan-2-yl)pyridin-3-yl)-4-methoxyphenyl (cyclohexylmethyl)carbamate], for which the IC50 at human recombinant FAAH is 0.1 to 1 µM; at human recombinant MAGL, approximately 10 µM.
With `COc1ccc(OC(=O)NCc2ccccc2)cc1-c1cncc(-c2ccco2)c1` [Example 55, 3-(5-(furan-2-yl)pyridin-3-yl)-4-methoxyphenyl benzylcarbamate], the half-maximal inhibitory concentration (IC50) at human recombinant FAAH is approximately 1 µM; at human recombinant MAGL, approximately 10 µM.
The corresponding values for `COc1ccc(OC(=O)NC2CCCC2)cc1-c1cncc(-c2ccco2)c1` [Example 56, 3-(5-(furan-2-yl)pyridin-3-yl)-4-methoxyphenyl cyclopentylcarbamate] are 0.1 to 1 µM and more than 10 µM.
On the same counts, the results for `COc1ccc(OC(=O)NC2CCCCC2)cc1-c1cncc(-c2ccco2)c1` [Example 57, 3-(5-(furan-2-yl)pyridin-3-yl)-4-methoxyphenyl cyclohexylcarbamate] are 0.1 to 1 µM and more than 10 µM.
On the same counts, the results for `COc1ccc(OC(=O)NC2CCCCCC2)cc1-c1cncc(-c2ccco2)c1` [Example 58, 3-(5-(furan-2-yl)pyridin-3-yl)-4-methoxyphenyl cycloheptylcarbamate] are 0.1 to 1 µM and more than 10 µM.
Turning to `CCCCCCCCNC(=O)Oc1cccc(-c2cncc(-c3cccs3)c2)c1` [Example 59, 3-(5-(thiophen-2-yl)pyridin-3-yl)phenyl octylcarbamate], the IC50 is 0.01 to 0.1 µM at human recombinant FAAH and more than 10 µM at human recombinant MAGL.
The corresponding values for `O=C(NCC1CCCCC1)Oc1cccc(-c2cncc(-c3cccs3)c2)c1` [Example 60, 3-(5-(thiophen-2-yl)pyridin-3-yl)phenyl (cyclohexylmethyl)carbamate] are 0.01 to 0.1 µM and more than 10 µM.
The corresponding values for `O=C(NCc1ccccc1)Oc1cccc(-c2cncc(-c3cccs3)c2)c1` [Example 61, 3-(5-(thiophen-2-yl)pyridin-3-yl)phenyl benzylcarbamate] are approximately 0.1 µM and more than 10 µM.
On the same counts, the results for `O=C(NC1CCCC1)Oc1cccc(-c2cncc(-c3cccs3)c2)c1` [Example 62, 3-(5-(thiophen-2-yl)pyridin-3-yl)phenyl cyclopentylcarbamate] are 0.01 to 0.1 µM and approximately 10 µM.
Consider `O=C(NC1CCCCC1)Oc1cccc(-c2cncc(-c3cccs3)c2)c1` [Example 63, 3-(5-(thiophen-2-yl)pyridin-3-yl)phenyl cyclohexylcarbamate], for which the IC50 at human recombinant FAAH was 0.01 to 0.1 µM; on human recombinant MAGL, more than 10 µM.
`COc1ccc(OC(=O)NCC2CCCCC2)cc1-c1cncc(-c2cccs2)c1` [Example 66, 4-methoxy-3-(5-(thiophen-2-yl)pyridin-3-yl)phenyl (cyclohexylmethyl)carbamate]: the IC50 is 0.1 to 1 µM at human recombinant FAAH and approximately 10 µM on human recombinant MAGL.
On the same counts, the results for `COc1ccc(OC(=O)NCc2ccccc2)cc1-c1cncc(-c2cccs2)c1` [Example 67, 4-methoxy-3-(5-(thiophen-2-yl)pyridin-3-yl)phenyl benzylcarbamate] are more than 1 µM and more than 10 µM.

Broadly, the IC50 is the midpoint of a concentration-inhibition curve.
